Test results: ChEMBL document CHEMBL5584318, “Targeting Solvent-Front Mutations for Kinase Drug Discovery: From Structural Basis to Design Strategies” (J Med Chem, 2024)

Assay: Half life in human
Format: ADME

Structure (SMILES) | half-life [min]
Cn1cc(-c2cnn3ccc(N4CCC[C@@H]4c4cc(F)ccc4F)nc23)cn1 | 3
C[C@@H](Nc1ccn2ncc(-c3cnn(C)c3)c2n1)c1cc(F)ccc1OCC(F)F | 315
Cn1cc(-c2cnn3ccc(N4CCC[C@@H]4c4cc(F)ccc4OCC(F)F)nc23)cn1 | 8.3
